We go through 14 compounds from patent publication US7262185B2, “Benzazepine derivative, process for producing the same, and use” (Takeda Chemical Industries Ltd., priority 2001, dated 2007).

Molecules are shown by their SMILES.

By melting point is commonly meant the temperature, or range, at which the solid turns liquid.

In data set [1] the target is T1, human CCR5 chemokine receptor (Homo sapiens, UniProt P51681).
T1 construct: expressed in transfected cells
In words: Inhibition of [125I]-RANTES binding to CCR5/CHO cells (CCR5 antagonistic activity). As to conditions: test compound 1 μM, [125I]-RANTES as ligand, room temperature; for inhibition at 1 µM: 40 min, read-out: Binding Inhibitory Ratio (%); for Binding Inhibitory Ratio (%): 40 minutes. How it is done: Cloning of CCR5 gene from human spleen cDNA was conducted using the PCR method. Using spleen cDNA (0.5 ng) (TOYOBO CO., LTD, QUICK-Clone cDNA) as a template, PCR was performed in a DNA Thermal Cycler 480 (manufactured by Perkin Elmer) (reaction conditions: 30 cycles of 95° C. for 1 minute, 60° C. for 1 minute, and 75° C. for 5 minutes) by adding primer sets, SEQ. ID NO: 1 (sequence length: 34; sequence type: nucleic acid; chain number: single strand; topology: linear; kind of sequence: other nucleic acid synthetic. DNA) described in Experimental. Example (1) of WO 99/32100, and SEQ ID NO: 2 (sequence length: 34; sequence type: nucleic acid; chain number: single strand; topology: linear; kind of sequence: other nucleic acid synthetic. DNA) described in Experimental. Example (1) of WO 99/32100, (25 pmol, respectively), which were prepared referring to the nucleotide sequence of CCR5 gene, as reported by Samson et al. (Biochemistry 35 (11), 3362-3367 (1996)) and by using TaKaRa. EX Taq (Takara Shuzo). The resultant. PCR product was subjected to agarose gel electrophoresis to collect an approximately 1.0 kb. DNA fragment, which was subjected to an Original TA Cloning Kit (Funakoshi Co., Ltd.) to carry out cloning of CCR5 gene.
The plasmid obtained above was digested with restriction enzymes XbaI (Takara Shuzo Co., Ltd.) and BamHI (Takara Shuzo Co., Ltd.), and then subjected to agarose gel electrophoresis to collect DNA fragment of about 1.0 kb. The DNA fragment and plasmid pcDNA 3.1 (Funakoshi. Co., Ltd.) for expression in animal cells, which was previously digested with XbaI and BamHI, were mixed and ligated by DNA Ligation Kit Ver. 2 (Takara Shuzo Co., Ltd.). The resulting plasmid was subjected to transformation into. E. coli JM109 competent cells (Takara Shuzo Co., Ltd.) to obtain plasmid pCKR5.
CHO-K1 cells were cultured in a 750-ml tissue culture flask (Becton, Dickinson and Company.) using. Ham F12 medium (NIHON PHARMACEUTICAL CO., LTD.) containing 10% fetal bovine serum (Lifetech Oriental) and were collected using 0.5 g/L trypsin-0.2 g/L EDTA (Lifetech Oriental). The cells were washed with PBS (Lifetech Oriental), centrifuged (1000 rpm, 5 minutes), and suspended in PBS. The DNA was introduced into the cells using a Gene Pulser (Bio-Rad Laboratories, Inc.) under the following conditions. Namely, 8×10^6 cells and 10 μg of plasmid pCKR5 for expression of human CCR5 were placed in a cuvette having a 0.4-cm gap, and electroporation was carried out with a voltage 0.25 kV and 960 μF of capacitance. Then, the cells were transferred into Ham's. F12 medium containing 10% fetal bovine serum, and incubated for 24 hours. The cells were collected, centrifuged, and suspended in Ham' F12 medium containing 10% fetal bovine serum and Geneticin (Lifetech Oriental) at a concentration of 500 μg/ml. The suspension of cells was diluted to a concentration of 10^4 cells/ml, and was inoculated onto 96-well plate (Becton Dickinson), to obtain Geneticin-resistant strain.
Then, resulting. Geneticin-resistant strain were cultured on 96-well plate (Becton Dickinson), and CCR5-expressing cells were selected from the resistant cells. Namely, in an assay buffer, (Ham's F12 medium containing 0.5% BSA, and 20 mM HEPES (Wako Pure Chemical Ind., pH 7.2)) to which was added […][125I]-RANTES (Amersham) as a ligand, the cells were subjected to a binding reaction at room temperature for 40 minutes. Wells containing the cells were washed with ice-cooled PBS, and 50 μl/well of 1M NaOH was added and stirred. The cells to which the ligand was bound specifically, i.e., CCR5/CHO cells, were selected by measurement of radioactivity using a […].
The CCR5/CHO cells were inoculated onto 96-well microplate at a concentration of 5×10^4 cells/well, and were cultured for 24 hours. After removal of the medium by aspiration, to each well was added an assay buffer containing a test compound (1 μM), and [125I]/RANTES (Amersham) used as a ligand at a concentration of […]. […]

T1 sequence (P51681 whole entry): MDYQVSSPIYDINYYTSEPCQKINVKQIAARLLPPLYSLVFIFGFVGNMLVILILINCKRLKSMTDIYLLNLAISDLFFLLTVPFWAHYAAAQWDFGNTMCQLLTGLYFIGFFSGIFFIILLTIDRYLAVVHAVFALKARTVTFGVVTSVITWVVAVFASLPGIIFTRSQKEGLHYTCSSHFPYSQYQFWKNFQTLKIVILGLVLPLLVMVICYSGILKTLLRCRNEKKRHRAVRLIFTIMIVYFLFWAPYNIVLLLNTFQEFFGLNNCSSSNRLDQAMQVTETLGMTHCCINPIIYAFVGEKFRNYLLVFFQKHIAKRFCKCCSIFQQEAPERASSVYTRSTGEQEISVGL

The compound `CCCCOCCOc1ccc(-c2ccc3c(c2)C=C(C(=O)Nc2ccc([S+]([O-])Cc4nccn4CCCC(=O)NC)cc2)CCN3CC(C)C)cc1` (centres unmarked) [Compound 424, 7-[4-(2-butoxyethoxy)phenyl]-N-[4-[[[1-[4-(methylamino)-4-oxobutyl]-1H-imidazol-2-yl]methyl]sulfinyl]phenyl]-1-isobutyl-2,3-dihydro-1H-1-benzazepine-4-carboxamide] came in with a melting point of 159 to 161 °C. Also, in data set [1], the inhibition at 1 µM stood at 96%.
The matching figures for `CCCCOCCOc1ccc(-c2ccc3c(c2)C=C(C(=O)Nc2ccc([C@H](O)c4cccc[n+]4[O-])cc2)CCN3Cc2cnn(C)c2)cc1` [Compound 87, 7-[4-(2-butoxyethoxy)phenyl]-N-[4-[(S)-hydroxy(1-oxidopyridin-2-yl)methyl]phenyl]-1-(1-methylpyrazol-4-ylmethyl)-2,3-dihydro-1H-1-benzazepine-4-carboxamide]: 94 to 97 °C and 89%.
The compound `CCCCOCCOc1ccc(-c2ccc3c(c2)C=C(C(=O)Nc2ccc([S+]([O-])Cc4nncn4CC)cc2)CCN3CC(C)C)cc1` (centres unmarked) [Compound 135, 7-[4-(2-butoxyethoxy)phenyl]-N-[4-(4-ethyl-4H-1,2,4-triazol-3-ylmethylsulfinyl)phenyl]-1-isobutyl-2,3-dihydro-1H-benzazepine-4-carboxamide] gave a melting point of 102 to 104 °C. In addition, in data set [1], the inhibition at 1 µM was 100%.
In the same order, the values of `CCCCOCCOc1ccc(-c2ccc3c(c2)C=C(C(=O)Nc2ccc(CCCn4cnnc4)cc2)CCN3CC(C)C)cc1` [Compound 63, 7-[4-(2-butoxyethoxy)phenyl]-1-isobutyl-N-[4-[3-(4H-1,2,4-triazol-4-yl)propyl]phenyl]-2,3-dihydro-1H-1-benzazepine-4-carboxamide] are 165 to 167 °C and 96%.
With `CCCCOCCOc1ccc(-c2ccc3c(c2)C=C(C(=O)Nc2ccc(SCc4nccn4CCCC(N)=O)cc2)CCN3CC(C)C)cc1` [Compound 415, N-[4-[[[1-(4-amino-4-oxobutyl)-1H-imidazol-2-yl]methyl]thio]phenyl]-7-[4-(2-butoxyethoxy)phenyl]-1-isobutyl-2,3-dihydro-1H-1-benzazepine-4-carboxamide], the melting point lay within 142 to 143 °C. Further, in data set [1], the inhibition at 1 µM is 98%.
In the same order, the values of `CCCCOCCOc1ccc(-c2ccc3c(c2)C=C(C(=O)Nc2ccc(SCc4nncn4CCC)c(C)c2)CCN3CC(C)C)cc1` [Compound 40, 7-[4-(2-butoxyethoxy)phenyl]-1-isobutyl-N-[3-methyl-4-[(4-propyl-4H-1,2,4-triazol-3-yl)methylthio]phenyl]-2,3-dihydro-1H-1-benzazepine-4-carboxamide] are 104 to 107 °C and 90%.
For the compound `CCCCOCCOc1ccc(-c2ccc3c(c2)C=C(C(=O)Nc2ccc([S+]([O-])Cc4cncn4CCC)cc2)CCN3CC(C)C)cc1` (centres unmarked) [Compound 371, 7-[4-(2-butoxyethoxy)phenyl]-1-isobutyl-N-[4-[[[1-propylimidazol-5-yl]methyl]sulfinyl]phenyl]-2,3-dihydro-1-benzazepine-4-carboxamide], the inhibition at 1 µM in data set [1] was 100%.
Consider `CCCCOCCOc1ccc(-c2ccc3c(c2)C=C(C(=O)Nc2ccc([S+]([O-])Cc4cncn4CCC)cc2)CCN3CC(C)C)cc1` (single isomer, unassigned; (-)) [Compound 373, (−)-7-[4-(2-butoxyethoxy)phenyl]-1-isobutyl-N-[4-[[[1-propylimidazol-5-yl]methyl]sulfinyl]phenyl]-2,3-dihydro-1-benzazepine-4-carboxamide], for which the “Binding Inhibitory Ratio (%)” value in data set [1] is 94%.
For `CCCCOCCOc1ccc(-c2ccc3c(c2)C=C(C(=O)Nc2ccc([S+]([O-])Cc4cccnc4C)cc2)CCN3CC(C)C)cc1` (centres unmarked) [Compound 251, 7-[4-(2-butoxyethoxy)phenyl]-1-isobutyl-N-[4-[[(2-methyl-3-pyridinyl)methyl]sulfinyl]phenyl]-2,3-dihydro-1-benzazepine-4-carboxamide], the inhibition at 1 µM in data set [1] was determined as 99%.
Take `CCCCOCCOc1ccc(-c2ccc3c(c2)C=C(C(=O)Nc2ccc([S+]([O-])Cc4nccn4C4CC4)cc2)CCN3CC(C)C)cc1` (centres unmarked) [Compound 367, 7-[4-(2-butoxyethoxy)phenyl]-N-[4-[[[1-cyclopropylimidazol-2-yl]methyl]sulfinyl]phenyl]-1-isobutyl-2,3-dihydro-1-benzazepine-4-carboxamide]: the inhibition at 1 µM in data set [1] was 96%.
On the same count and under the same terms, the same measure for `CCCCOCCOc1ccc(-c2ccc3c(c2)C=C(C(=O)Nc2ccc([S+]([O-])Cc4cncn4CCOC)cc2)CCN3CC(C)C)cc1` (centres unmarked) [Compound 308, 7-[4-(2-butoxyethoxy)phenyl]-1-isobutyl-N-[4-[[[1-(2-methoxyethyl)imidazol-5-yl]methyl]sulfinyl]phenyl]-2,3-dihydro-1-benzazepine-4-carboxamide]: 100%.
In the case of `CCCCOCCOc1ccc(-c2ccc3c(c2)C=C(C(=O)Nc2ccc([S+]([O-])Cc4cncn4CCC)cc2)CCN3CCC)cc1` (single isomer, unassigned; (-)) [Compound 378, (−)-7-[4-(2-butoxyethoxy)phenyl]-1-propyl-N-[4-[[[1-propylimidazol-5-yl]methyl]sulfinyl]phenyl]-2,3-dihydro-1-benzazepine-4-carboxamide], the “Binding Inhibitory Ratio (%)” value in data set [1] stood at 87%.
Take `CCCCOCCOc1ccc(-c2ccc3c(c2)C=C(C(=O)Nc2ccc([S+]([O-])Cc4cncn4CCOC(C)=O)cc2)CCN3CC(C)C)cc1` (centres unmarked) [Compound 427, [5-[[[4-[[[7-[4-(2-butoxyethoxy)phenyl]-1-isobutyl-2,3-dihydro-1H-1-benzazepin-4-yl]carbonyl]amino]phenyl]sulfinyl]methyl]-1H-imidazol-1-yl]ethyl acetate]: the inhibition at 1 µM in data set [1] stood at 100%.
The same measure, in the same setting: next, `CCCCOCCOc1ccc(-c2ccc3c(c2)C=C(C(=O)Nc2ccc([S+]([O-])Cc4nccn4CCOC(C)=O)cc2)CCN3CC(C)C)cc1` (centres unmarked) [Compound 411, [2-[[[4-[[[7-[4-(2-butoxyethoxy)phenyl]-1-isobutyl-2,3-dihydro-1H-1-benzazepin-4-yl]carbonyl]amino]phenyl]sulfinyl]methyl]-1H-imidazol-1-yl]ethyl acetate]: 100%.
